Measured values from patent US12673022B2, “Drug delivery system using solution” (Kyoto University, priority 2018, dated 2026).

Tested on: EGFP reporter cells (C2C12 cells)
Test: EGFP-SSA assay: uptake of Cas9 protein/gRNA complex into cells (EGFP positive rate)
Assay type: cell-based, mouse
Conditions: Example 1; compound 250.0 mM; reaction solution 1 (550 mM sodium chloride, 1 mM HEPES, Cas9 protein/gRNA), 30 minutes
From the text: EGFP-SSA assay: an abbreviation of EGFP-single strand annealing assay. The reporter cassette shown in FIG. 1 is inserted in EGFP reporter cells. In the middle of the EGFP sequence of the cassette, MmDMD-Ex51 sequence is inserted. Since the presence of MmDMD-Ex51 sequence, by which EGFP ORF is divided, EGFP protein is not usually translated. However, when target sequence of MmDMD-Ex51 is cleaved by Cas9 protein/gRNA complex, the upstream region (EG part) and the downstream region (FP part) of EGFP ORF are annealed via a homology area into a single strand, with the result that a full-length EGFP ORF emerges to produce EGFP protein. Based on this principle, the ratio of the number of cells producing EGFP is checked by the EGFP-SSA assay. In this manner, the amount of Cas9 protein/gRNA complex delivered to cells can be predicted.
(§1) Cas9 protein (0.4 μg), tracrRNA (34.18 ng), MmDmd Ex51 crRNA (29.48 ng), a 1 M HEPES buffer (0.05 μL) and a 5 M aqueous sodium chloride solution (5.5 μL) were mixed and diluted with UltraPure DNase/RNase-Free Distilled Water up to a liquid volume of 37.5 μL so as to obtain final concentrations: 8 ng/μL Cas9 protein, 0.68 ng/μL tracrRNA, 0.59 ng/μL MmDmd Ex51 crRNA, 1 mM HEPES, 550 mM sodium chloride, and 250 mM compound. To this solution, a 1000 mM compound solution (12.5 μL) was added and the solution mixture was incubated at normal temperature for 15 minutes.
as §1, with “buffer (2.5” for “buffer (0.05”, “solution (4.85” for “solution (5.5”, “crRNA, 50” for “crRNA, 1”, “HEPES, 485” for “HEPES, 550”, “minutes. Note that, in the cases where the final concentrations of the compound are 0.69 mM, 25 mM, 100 mM, 125 mM, 160 mM, 200 mM and 500 mM, the compound stock solution was diluted with UltraPure DNase/RNase-Free Distilled Water up to concentrations of 2.76 mM, 100 mM, 400 mM, 500 mM, 640 mM, 800 mM and 2000 mM, respectively, and then, added. […]” for “minutes.”
Cas9 protein (2.0 μg), tracrRNA (170.9 ng), MmDmd Ex51 crRNA (147.4 ng), a 1 M HEPES buffer (12.5 μL), a 5 M aqueous sodium chloride solution (18.35 μL) and a 1 M aqueous GABA solution (62.5 μL) were mixed, diluted with UltraPure DNase/RNase-Free Distilled Water up to a liquid volume of 250 μL so as to obtain final concentrations: 8 ng/μL Cas9 protein, 0.68 ng/μL tracrRNA, 0.59 ng/μL MmDmd Ex51 crRNA, 50 mM HEPES, 250 mM GABA and 367 mM sodium chloride, and incubated at normal temperature for 15 minutes. Note that the addition amount of the 5 M aqueous sodium chloride solution was changed to 24.25 μL in the case of 485 mM sodium chloride and the addition amount was changed to 27.5 μL in the case of 550 mM sodium chloride, respectively.

NC(=O)N[C@@H](CC(=O)O)C(=O)O [N-Carbamyl-L-aspartic acid]
Compound activity: EGFP positive rate (%): 8.53%
